Measured values from publication PMC11341970 (RSC Advances, 2024).
Where two headings read alike, the source gives them in different places.

How the values were obtained:
hBACE 1 = hBACE 1 (Homo sapiens, UniProt P56817); experiment: BACE 1 inhibition assay; type: biochemical
EeAChE = EeAChE (Electrophorus electricus, UniProt O42275); experiment: AChE inhibition assay; type: biochemical
[1] = read-out: hBACE 1 IC50 (μM) ± SD, FRET assay, mean ± SD of three experiments
[2] = read-out: eeAChE IC50 (μM) ± SD, Ellman assay, mean ± SD of three experiments

hBACE 1, sequence (P56817 46-501): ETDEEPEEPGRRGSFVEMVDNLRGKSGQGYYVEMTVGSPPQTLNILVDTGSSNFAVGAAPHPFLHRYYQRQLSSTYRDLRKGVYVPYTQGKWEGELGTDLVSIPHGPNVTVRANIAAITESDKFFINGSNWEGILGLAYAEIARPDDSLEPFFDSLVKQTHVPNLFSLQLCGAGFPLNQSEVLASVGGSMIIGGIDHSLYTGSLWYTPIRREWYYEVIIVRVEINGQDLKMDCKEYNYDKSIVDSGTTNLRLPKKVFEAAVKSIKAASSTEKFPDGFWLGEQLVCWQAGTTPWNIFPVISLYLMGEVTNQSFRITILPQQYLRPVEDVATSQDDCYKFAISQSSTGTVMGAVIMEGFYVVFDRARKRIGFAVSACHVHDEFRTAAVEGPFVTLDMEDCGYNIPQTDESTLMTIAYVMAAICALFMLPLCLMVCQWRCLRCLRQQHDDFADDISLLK
EeAChE, sequence (O42275 24-633): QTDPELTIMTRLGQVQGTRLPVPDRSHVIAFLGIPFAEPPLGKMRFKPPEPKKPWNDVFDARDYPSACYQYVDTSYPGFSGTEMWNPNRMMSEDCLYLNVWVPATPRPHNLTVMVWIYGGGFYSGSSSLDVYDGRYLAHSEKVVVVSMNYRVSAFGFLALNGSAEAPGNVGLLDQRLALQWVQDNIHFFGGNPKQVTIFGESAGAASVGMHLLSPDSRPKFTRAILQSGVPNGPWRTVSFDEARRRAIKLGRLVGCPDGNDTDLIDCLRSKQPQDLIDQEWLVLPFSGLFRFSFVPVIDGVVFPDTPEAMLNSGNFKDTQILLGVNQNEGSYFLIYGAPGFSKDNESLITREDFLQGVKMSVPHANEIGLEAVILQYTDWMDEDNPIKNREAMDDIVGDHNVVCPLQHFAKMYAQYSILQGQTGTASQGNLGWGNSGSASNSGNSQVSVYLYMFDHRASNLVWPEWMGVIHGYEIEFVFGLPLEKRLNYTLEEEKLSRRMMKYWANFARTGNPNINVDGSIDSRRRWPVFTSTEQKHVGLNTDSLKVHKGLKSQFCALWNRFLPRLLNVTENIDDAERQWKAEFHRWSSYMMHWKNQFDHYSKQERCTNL

Structure (SMILES)	IC50 (hBACE 1)	IC50 (EeAChE)	AChE inhibition (% of inhibition) (EeAChE; concentration not given)	IC50 (hBACE 1; [1])	IC50 (EeAChE; [2])
[H]/N=C(/N)NN=C(/C=C/c1ccc(Cl)cc1Cl)c1cccn1Cc1ccccc1 [Compound 1d, (Z)-2-((E)-1-(1-Benzyl-1H-pyrrol-2-yl)-3-(2,4-dichlorophenyl)allylidene)hydrazine-1-carboximidamide]	207.9 ± 1.91 µM	55.4 ± 0.91 µM	26.75%	–	–
[H]/N=C(/N)NN=C(/C=C/c1ccc(OC)cc1)c1cccn1Cc1ccccc1 [Compound 1f, (Z)-2-((E)-1-(1-Benzyl-1H-pyrrol-2-yl)-3-(4-methoxyphenyl)allylidene)hydrazine-1-carboximidamide]	173 ± 1.06 µM	139.1 ± 0.35 µM	–	–	–
[H]/N=C(/N)NN=C(/C=C/c1ccccc1F)c1cccn1Cc1ccccc1 [Compound 1e, (Z)-2-((E)-1-(1-Benzyl-1H-pyrrol-2-yl)-3-(2-fluorophenyl)allylidene)hydrazine-1-carboximidamide]	174.5 ± 1.48 µM	172.3 ± 1.56 µM	–	–	–
[H]/N=C(/N)NN=C(/C=C/c1ccc(F)c(F)c1)c1cccn1Cc1ccc(C(C)(C)C)cc1 [Compound 3f, (Z)-2-((E)-1-(1-(4-(tert-Butyl)benzyl)-1H-pyrrol-2-yl)-3-(3,4-difluorophenyl)allylidene)hydrazine-1-carboximidamide]	–	–	–	135.9 ± 0.71 µM	126.1 ± 0.71 µM
[H]/N=C(/N)NN=C(/C=C/c1ccc(C(C)(C)C)cc1)c1cccn1Cc1ccc(C(C)(C)C)cc1 [Compound 3k, (Z)-2-((E)-1-(1-(4-(tert-Butyl)benzyl)-1H-pyrrol-2-yl)-3-(4-(tert-butyl)phenyl)allylidene)hydrazine-1-carboximidamide]	178.2 ± 0.92 µM	48.1 ± 0.52 µM	–	–	–
[H]/N=C(/N)NN=C(/C=C/c1ccccc1)c1cccn1Cc1ccccc1 [Compound 1a, (Z)-2-((E)-1-(1-Benzyl-1H-pyrrol-2-yl)-3-phenylallylidene)hydrazine-1-carboximidamide]	169.9 ± 1.27 µM	215.3 ± 0.14 µM	–	–	–
[H]/N=C(/N)NN=C(/C=C/c1ccccc1)c1cccn1Cc1cc(C(F)(F)F)cc(C(F)(F)F)c1 [Compound 2i, (Z)-2-((E)-1-(1-(3,5-Bis(trifluoromethyl)benzyl)-1H-pyrrol-2-yl)-3-phenylallylidene)hydrazine-1-carboximidamide]	139.1 ± 1.13 µM	77.56 ± 0.66 µM	–	–	–
[H]/N=C(/N)NN=C(/C=C/c1ccccc1)c1cccn1Cc1cc(F)ccc1C [Compound 2p, (Z)-2-((E)-1-(1-(5-Fluoro-2-methylbenzyl)-1H-pyrrol-2-yl)-3-phenylallylidene)hydrazine-1-carboximidamide]	145 ± 0.28 µM	80.13 ± 0.16 µM	–	–	–
[H]/N=C(/N)NN=C(/C=C/c1ccc(F)cc1)c1cccn1Cc1ccc(Br)cc1 [Compound 3a, (Z)-2-((E)-1-(1-(4-Bromobenzyl)-1H-pyrrol-2-yl)-3-(4-fluorophenyl)allylidene)hydrazine-1-carboximidamide]	–	–	–	165.7 ± 1.34 µM	86.09 ± 0.33 µM
[H]/N=C(/N)NN=C(/C=C/c1ccccc1)c1cccn1Cc1ccc(OC(F)F)cc1 [Compound 2c, (Z)-2-((E)-1-(1-(4-(Difluoromethoxy)benzyl)-1H-pyrrol-2-yl)-3-phenylallylidene)hydrazine-1-carboximidamide]	–	–	–	15.4 ± 0.24 µM	195.8 ± 0.99 µM
[H]/N=C(/N)NN=C(/C=C/c1cc(OC)cc(OC)c1)c1cccn1Cc1ccc(C(C)(C)C)cc1 [Compound 3j, (Z)-2-((E)-1-(1-(4-(tert-Butyl)benzyl)-1H-pyrrol-2-yl)-3-(3,5-dimethoxyphenyl)allylidene)hydrazine-1-carboximidamide]	177 ± 2.83 µM	69.6 ± 1.51 µM	–	–	–
[H]/N=C(/N)NN=C(/C=C/c1ccc(C(C)(C)C)cc1)c1cccn1Cc1ccc(-c2ccccc2)cc1 [Compound 3g, (Z)-2-((E)-1-(1-([1,1′-Biphenyl]-4-ylmethyl)-1H-pyrrol-2-yl)-3-(4-(tert-butyl)phenyl)allylidene)hydrazine-1-carboximidamide]	185.4 ± 1.84 µM	76.1 ± 0.79 µM	–	–	–
[H]/N=C(/N)NN=C(/C=C/c1ccccc1)c1cccn1Cc1ccc([N+](=O)[O-])cc1 [Compound 2l, (Z)-2-((E)-1-(1-(4-Nitrobenzyl)-1H-pyrrol-2-yl)-3-phenylallylidene)hydrazine-1-carboximidamide]	193.35 ± 0.07 µM	43.6 ± 0.66 µM	–	–	–
[H]/N=C(/N)NN=C(/C=C/c1ccc(Cl)cc1)c1cccn1Cc1ccc(Br)cc1 [Compound 3l, (Z)-2-((E)-1-(1-(4-Bromobenzyl)-1H-pyrrol-2-yl)-3-(4-chlorophenyl)allylidene)hydrazine-1-carboximidamide]	192.3 ± 1.77 µM	123 ± 3.11 µM	–	–	–
[H]/N=C(/N)NN=C(/C=C/c1ccccc1)c1cccn1Cc1ccc(C(C)(C)C)cc1 [Compound 2q, (Z)-2-((E)-1-(1-(4-(tert-Butyl)benzyl)-1H-pyrrol-2-yl)-3-phenylallylidene)hydrazine-1-carboximidamide]	167.5 ± 0.71 µM	48.52 ± 0.23 µM	–	–	–
[H]/N=C(/N)NN=C(/C=C/c1ccc(C(C)C)cc1)c1cccn1Cc1ccccc1 [Compound 1h, (Z)-2-((E)-1-(1-Benzyl-1H-pyrrol-2-yl)-3-(4-isopropylphenyl)allylidene)hydrazine-1-carboximidamide]	108 ± 1.2 µM	203.8 ± 1.7 µM	–	–	–
[H]/N=C(/N)NN=C(/C=C/c1ccc(C(C)(C)C)cc1)c1cccn1Cc1ccc(F)cc1F [Compound 3d, (Z)-2-((E)-3-(4-(tert-Butyl)phenyl)-1-(1-(2,4-difluorobenzyl)-1H-pyrrol-2-yl)allylidene)hydrazine-1-carboximidamide]	–	–	–	221.8 ± 1.27 µM	104.3 ± 0.14 µM
[H]/N=C(/N)NN=C(/C=C/c1ccc(C(C)(C)C)cc1)c1cccn1Cc1ccc(Br)cc1 [Compound 3i, (Z)-2-((E)-1-(1-(4-Bromobenzyl)-1H-pyrrol-2-yl)-3-(4-(tert-butyl)phenyl)allylidene)hydrazine-1-carboximidamide]	193 ± 2.12 µM	83.94 ± 0.74 µM	–	–	–
[H]/N=C(/N)NN=C(/C=C/c1ccccc1)c1cccn1Cc1ccccc1F [Compound 2g, (Z)-2-((E)-1-(1-(2-Fluorobenzyl)-1H-pyrrol-2-yl)-3-phenylallylidene)hydrazine-1-carboximidamide]	100.8 ± 0.57 µM	163 ± 3.18 µM	–	–	–
[H]/N=C(/N)NN=C(/C=C/c1ccccc1)c1cccn1Cc1ccc(C(C)C)cc1 [Compound 2r, (Z)-2-((E)-1-(1-(4-Isopropylbenzyl)-1H-pyrrol-2-yl)-3-phenylallylidene)hydrazine-1-carboximidamide]	191.3 ± 1.41 µM	50.4 ± 0.91 µM	–	–	–
[H]/N=C(/N)NN=C(/C=C/c1ccccc1)c1cccn1Cc1ccc(CCCC)cc1 [Compound 2j, (Z)-2-((E)-1-(1-(4-Butylbenzyl)-1H-pyrrol-2-yl)-3-phenylallylidene)hydrazine-1-carboximidamide]	132.7 ± 1.22 µM	55.4 ± 4.19 µM	–	–	–
[H]/N=C(/N)NN=C(/C=C/c1ccccc1)c1cccn1Cc1ccc(F)cc1C(F)(F)F [Compound 2h, (Z)-2-((E)-1-(1-(4-Fluoro-2-(trifluoromethyl)benzyl)-1H-pyrrol-2-yl)-3-phenylallylidene)hydrazine-1-carboximidamide]	74.2 ± 1.8 µM	57.1 ± 3.91 µM	–	–	–
[H]/N=C(/N)NN=C(/C=C/c1ccccc1)c1cccn1Cc1cccc(C#N)c1 [Compound 2o, (Z)-2-((E)-1-(1-(3-Cyanobenzyl)-1H-pyrrol-2-yl)-3-phenylallylidene)hydrazine-1-carboximidamide]	147.8 ± 0.28 µM	75.4 ± 1.03 µM	–	–	–
